pKi: −log10 of the molar value.
What was measured:
[1] = tested on: DK-PGD2-induced vascular leakage; test: Model of DK-PGD2-induced vascular leakage in mice; format: in vivo, Balb/c mice; conditions: Mus musculus, 1.5 h; dose of 30 mg/kg; 30 min before DK-PGD2 challenge; Evans blue extravasation
Method: This test is described in Takeshita et al. (2004). Balb/c mice (Elevage Janvier) (8 week old) received an intradermal injection of DK-PGD2 (10 μg in 30 μl) on their shaved backs and an intravenous injection of Evans blue solution (25 mg/kg) 30 min after administration of the test molecules (spiro derivative). Ninety minutes after the challenge, the animals were sacrificed. The skin of the back was removed and blood was sampled. The extravasated dye (punch diameter: 5 mm) was extracted by 0.2 ml of formamide and was quantified by fluorescence (E1: 585 nm, E2: 660 nm). The Evans Blue extravasation ratio was expressed as the following: skin/serum×1000.

CRTH2 [2] = molecular target: T1, CRTH2 (Homo sapiens, UniProt Q9Y5Y4); test: Determination of Ki (radioligand binding assay, equilibrium competition against [3H]PGD2); design: expressed in transfected cells; host or cells: HEK293 (EBNA) cells, membrane preparation; conditions: average of at least three independent dose response experiments
T1 sequence (Q9Y5Y4 1-395): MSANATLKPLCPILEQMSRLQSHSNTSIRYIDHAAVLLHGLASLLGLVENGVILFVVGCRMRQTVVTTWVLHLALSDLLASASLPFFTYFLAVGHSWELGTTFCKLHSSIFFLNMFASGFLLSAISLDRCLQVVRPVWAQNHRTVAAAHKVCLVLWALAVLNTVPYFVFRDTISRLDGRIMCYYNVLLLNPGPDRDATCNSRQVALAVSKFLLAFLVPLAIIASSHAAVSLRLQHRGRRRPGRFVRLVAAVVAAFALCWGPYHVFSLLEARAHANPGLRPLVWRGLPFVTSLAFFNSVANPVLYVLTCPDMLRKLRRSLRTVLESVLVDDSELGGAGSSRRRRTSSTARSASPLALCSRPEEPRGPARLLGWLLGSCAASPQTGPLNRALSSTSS
Method: The inhibitory activity can be investigated by a radioligand binding assay (Sawyer et al., Br. J. Pharmocol 2002, 137, 1163-72). The radioligand binding assay was performed at room temperature in binding buffer (10 mM HEPES/KOH pH […], with protease inhibitor cocktail tablets), containing 1.5 nM [^3H]PGD2 (Amersham, 156 Cie/mmol), and 10 μg of hCRTH2 HEK293 (EBNA) cell membrane protein in a final volume of 100 μl in 96 well plates (Corning, USA). Non-specific binding was determined in the presence of 1 μM PGD2 (Cayman, USA). Competing spiro-indolinones were diluted in dimethylsulphoxide so that the total volume of dimethylsulfoxide was kept constant at 1% dimethylsulphoxide (Me2SO) Serial dilutions of 100 μM and […] were prepared. 10 μl each of these spiro-indolinone stock solutions were added. Incubation (60 min at room temperature) was terminated by rapid filtration through 96 wells hydrophobic GF/C Unifilter plates (Whatman, USA). Filters were washed twice with 250 μl of Tris-HCl pH 7.4, 10 mM MnCl2, and residual radioligand bound to the filters was mixed to 100 μl of liquid scintillation cocktail (Optiphase Supermix, Perkin Elmer, USA) and binding activity was determined by counting residual radioligand using a 1450 Micro-beta scintillation counter (Wallac, UK). The following representative compounds were tested. All inhibited the binding of PGD2 to CRTH2 by more than 70%. • (1′-benzyl-5-chloro-2,2′,5′-trioxospiro[indole-3,3′-pyrrolidin]-1(2H)-yl)acetic acid • (1′-benzyl-5-fluoro-2,2′,5′-trioxospiro[indole-3,3′-pyrrolidin]-1(2H)-yl)acetic acid • 4-(1′-allyl-5-chloro-2,2′,5′-trioxospiro[indole-3,3′-pyrrolidin]-1(2H)-yl)butanoic acid • [5-chloro-1′-(2-methoxyethyl)-2,2′,5′-trioxospiro[indole-3,3′-pyrrolidin]-1(2H)-yl]acetic acid • 4-(1′-benzyl-5-chloro-2,2′,5′-trioxospiro[indole-3,3′-pyrrolidin]-1(2H)-yl)butanoic acid • (1′-benzyl-5-methoxy-2,2′,5′-trioxospiro[indole-3,3′-pyrrolidin]-1(2H)-yl)acetic acid • [5-fluoro-1′-[(2-methoxyethoxy)methyl]-2,2′,5′-trioxospiro[indole-3,3′-pyrrolidin]-1(2H)-yl]acetic acid • 4-(1′-allyl-5-fluoro-2,2′,5′-trioxospiro[indole-3,3′-pyrrolidin]-1(2H)-yl)butanoic acid • 4-(1′-benzyl-5-fluoro-2,2′,5′-trioxospiro[indole-3,3′-pyrrolidin]-1(2H)-yl)butanoic acid
Ki values were determined by equilibrium competition binding experiments against [^3H]PGD2. Ki values were calculated from the formula below and represent the average of at least three independent dose response experiments. The Ki values give the ligand concentrations necessary to inhibit 50% of the binding of [^3H]PGD2 to CRTH2. Ki=IC50/(1+[Concentration of Ligand]/Kd)]
All experiments were performed in 96 well plates, in a final volume of 100 μl according to the above described filtration assay. The concentration of membranes and 3 [H]PGD2, as well as the positive and negative controls were identical to the conditions described above.

CRTH2 [3] = molecular target: T1, CRTH2; test: Radioligand binding assay ([3H]PGD2, hCRTH2 HEK293 (EBNA) cell membranes); design: expressed in transfected cells; host or cells: HEK293 (EBNA) cells, membrane preparation; conditions: 1.5 nM [3H]PGD2, 10 μg hCRTH2 HEK293 (EBNA) membrane protein, 60 min at room temperature
Text: Human CRTH2 cDNA was amplified by PCR using a human urinary bladder cDNA library as a template and specific primers containing HindIII and BamHI restriction sites for cloning into the pCEP4 vector (Invitrogen). The vector construction is described in detail in Sawyer et al., Br. J. Pharmocol 2002, 137, 1163-72. The nucleotide sequence of the cloned cDNA was identical the previously reported hCRTH2 sequence (Nagata et al, 1999, J. Immunol. 162, 1278-1286).
HEK293 (EBNA) cells were transfected with the pCEP4-hCRTH2 construct using the calcium phosphate technique. Cells were maintained in culture at 37° C. in an atmosphere of 5% CO2 in Dulbecco's modified Eagle's F12 medium (Invitrogen), containing 10% heat-inactivated foetal calf serum (TerraCell International, Canada), 2 mM Glutamine, 100 units/ml of penicillin and 100 μg/ml streptomycin (Invitrogen). 48 hours after the transfection, cells were grown in presence of 300 μg/ml of Hygromycin B (Invitrogen) for 4 weeks and antibiotic resistant cells were amplified for cell membrane preparation.
Adherent HEK293 (EBNA) cells expressing hCRTH2 were cultured in 225 cm^2 cell culture flasks (Corning, USA) in 30 ml of medium. After two rinses of phosphate buffered saline (PBS), cells were harvested in 10 ml of PBS containing 1 mM EDTA, centrifuged at 500×g for 5 min at 4° C. and frozen at −80° C. The pellet was re-suspended in 50 mM Tris-HCl, pH 7.4, 2 mM EDTA, 250 mM Sucrose, containing protease inhibitor cocktail tablets, (Complete EDTA-free, Roche, Germany) and incubated 30 min at 4° C. Cells were disrupted by nitrogen cavitation (Parr Instruments, USA) at 4° C. (800 p.s.i. for 30 min), and centrifuged at 500×g for 10 min at 4° C. Pellet containing nuclei and cellular debris was discarded and supernatant was centrifuged 60 min at 4° C. at 45000×g. Membrane pellet was re-suspended in storage buffer (10 mM HEPES/KOH pH 7.4, 1 mM EDTA, 250 mM sucrose, protease inhibitor cocktail tablets) using Dounce homogenization and frozen in liquid nitrogen, and stored at −80° C.
The inhibitory activity can be investigated by a radioligand binding assay (Sawyer et al., Br. J. Pharmocol 2002, 137, 1163-72). The radioligand binding assay was performed at room temperature in binding buffer (10 mM HEPES/KOH pH […], with protease inhibitor cocktail tablets), containing 1.5 nM [^3H]PGD2 (Amersham, 156 Cie/mmol), and 10 μg of hCRTH2 HEK293 (EBNA) cell membrane protein in a final volume of 100 μl in 96 well plates (Corning, USA). Non-specific binding was determined in the presence of 1 μM PGD2 (Cayman, USA). Competing spiro-indolinones were diluted in dimethylsulphoxide so that the total volume of dimethylsulfoxide was kept constant at 1% dimethylsulphoxide (Me2SO) Serial dilutions of 100 μM and […] were prepared. 10 μl each of these spiro-indolinone stock solutions were added. Incubation (60 min at room temperature) was terminated by rapid filtration through 96 wells hydrophobic GF/C Unifilter plates (Whatman, USA). Filters were washed twice with 250 μl of Tris-HCl pH 7.4, 10 mM MnCl2, and residual radioligand bound to the filters was mixed to 100 μl of liquid scintillation cocktail (Optiphase Supermix, Perkin Elmer, USA) and binding activity was determined by counting residual radioligand using a 1450 Micro-beta scintillation counter (Wallac, UK). The following representative compounds were tested. […]

pKi (CRTH2 [2]) | inhibition (CRTH2 [3]) [%] | Compound | inhibition in vivo at 30 mg/kg [1] [%]
6.20 |  | O=C(O)CN1C(=O)C2(CC(=O)N(Cc3ccccc3)C2)c2cc(Cl)ccc21 (centres unmarked) [Compound 113, (1′-benzyl-5-chloro-2,5′-dioxospiro[indole-3,3′-pyrrolidin]-1(2H)-yl)acetic acid] | 55
 | > 70 | COCCN1C(=O)CC2(C1=O)C(=O)N(CC(=O)O)c1ccc(Cl)cc12 (centres unmarked) [[5-chloro-1′-(2-methoxyethyl)-2,2′,5′-trioxospiro[indole-3,3′-pyrrolidin]-1(2H)-yl]acetic acid] | 
 | > 70 | C=CCN1C(=O)CC2(C1=O)C(=O)N(CCCC(=O)O)c1ccc(Cl)cc12 (centres unmarked) [4-(1′-allyl-5-chloro-2,2′,5′-trioxospiro[indole-3,3′-pyrrolidin]-1(2H)-yl)butanoic acid] | 
 | > 70 | COc1ccc2c(c1)C1(CC(=O)N(Cc3ccccc3)C1=O)C(=O)N2CC(=O)O (centres unmarked) [(1′-benzyl-5-methoxy-2,2′,5′-trioxospiro[indole-3,3′-pyrrolidin]-1(2H)-yl)acetic acid] | 
 | > 70 | O=C(O)CCCN1C(=O)C2(CC(=O)N(Cc3ccccc3)C2=O)c2cc(Cl)ccc21 (centres unmarked) [4-(1′-benzyl-5-chloro-2,2′,5′-trioxospiro[indole-3,3′-pyrrolidin]-1(2H)-yl)butanoic acid] | 
6.85 |  | O=C(O)CN1C(=O)C2(CC(=O)N(Cc3ccccc3F)C2)c2cc(Cl)ccc21 (centres unmarked) [Compound 115, [5-chloro-1′-(2-fluorobenzyl)-2,5′-dioxospiro[indole-3,3′-pyrrolidin]-1(2H)-yl]acetic acid] | 45
 | > 70 | O=C(O)CN1C(=O)C2(CC(=O)N(Cc3ccccc3)C2=O)c2cc(F)ccc21 (centres unmarked) [(1′-benzyl-5-fluoro-2,2′,5′-trioxospiro[indole-3,3′-pyrrolidin]-1(2H)-yl)acetic acid] | 
7.55 |  | O=C(O)CN1C(=O)[C@@]2(CC(=O)N(Cc3ccccc3F)C2=O)c2cc(Cl)ccc21 [Compound 109, (3R)-[5-chloro-1′-(2-fluorobenzyl)-2,2′,5′-trioxospiro[indole-3,3′-pyrrolidin]-1(2H)-yl]acetic acid] | 38
8.47 |  | Cc1noc(-c2ccccc2)c1CN1CC2(CC1=O)C(=O)N(CC(=O)O)c1ccc(Cl)cc12 (centres unmarked) [Compound 114, [5-chloro-1′-[(3-methyl-5-phenylisoxazol-4-yl)methyl]-2,5′-dioxospiro[indole-3,3′-pyrrolidin]-1(2H)-yl]acetic acid] | 44
7.66 |  | O=C(O)CN1C(=O)C2(CC(=O)N(Cc3cc(Cl)ccc3F)C2)c2cc(Cl)ccc21 (centres unmarked) [Compound 116, [5-chloro-1′-(5-chloro-2-fluorobenzyl)-2,5′-dioxospiro[indole-3,3′-pyrrolidin]-1(2H)-yl]acetic acid] | 51
 | > 70 | O=C(O)CCCN1C(=O)C2(CC(=O)N(Cc3ccccc3)C2=O)c2cc(F)ccc21 (centres unmarked) [4-(1′-benzyl-5-fluoro-2,2′,5′-trioxospiro[indole-3,3′-pyrrolidin]-1(2H)-yl)butanoic acid] | 
 | > 70 | COCCOCN1C(=O)CC2(C1=O)C(=O)N(CC(=O)O)c1ccc(F)cc12 (centres unmarked) [[5-fluoro-1′-[(2-methoxyethoxy)methyl]-2,2′,5′-trioxospiro[indole-3,3′-pyrrolidin]-1(2H)-yl]acetic acid] | 
 | > 70 | C=CCN1C(=O)CC2(C1=O)C(=O)N(CCCC(=O)O)c1ccc(F)cc12 (centres unmarked) [4-(1′-allyl-5-fluoro-2,2′,5′-trioxospiro[indole-3,3′-pyrrolidin]-1(2H)-yl)butanoic acid] | 
6.83 |  | O=C(O)CN1C(=O)C2(CC(=O)N(Cc3cccc(Oc4ccccc4)c3)C2=O)c2cc(Cl)ccc21 (centres unmarked) [Compound 10, [5-chloro-2,2′,5′-trioxo-1′-(3-phenoxybenzyl)spiro[indole-3,3′-pyrrolidin]-1(2H)-yl]acetic acid] | 
5.99 |  | CCOCCN1C(=O)CC2(C1=O)C(=O)N(CC(=O)O)c1ccc(Cl)cc12 (centres unmarked) [Compound 28, [5-chloro-1′-(2-ethoxyethyl)-2,2′,5′-trioxospiro[indole-3,3′-pyrrolidin]-1(2H)-yl]acetic acid] | 

Reference: patent US8236963B2, “Tricyclic spiro derivatives as CRTH2 modulators” (Merck Serono SA, priority 2005, dated 2012)
